Assay results from US5922580A, “Non-reducing saccharide-forming enzyme, its preparation and uses” (priority 1992, dated 1999).

Assays:
[1] = Reducing power by Somogyi-Nelson's method expressed as DE; format: physicochemical; settings: high-purity saccharide preparations of Experiment 4
Protocol: The reducing powders of these novel saccharides were determined on the Somogyi-Nelson's method and expressed by DE (dextrose equivalent).

[2] = Maillard reaction with glycine; format: physicochemical; settings: for Coloration degree (480 nm): 1% glycine, 10% saccharide, 50 mM phosphate buffer pH 7.0, 100° C. for 90 min, absorbance in 1-cm cell; for Coloration degree relative to corresponding material maltooligosaccharide: Maillard reaction, 480 nm
Protocol: As a control, maltotriose, maltotetraose, maltopentaose, maltohexaose and maltoheptaose as a material for the saccharide preparations were similarly treated as above, and measured their absorbances were measured at a wave length of 480 nm.

glucoamylase = experiment: Enzymatic hydrolysis by glucoamylase; format: biochemical; settings: for Glucose / Trehalose: 50 mg in 1 ml 50 mM acetate buffer pH 4.5, one unit glucoamylase, 40° C., 6 hours, HPLC; for Molecular ratio (Glucose/Trehalose): glucoamylase hydrolysate
Protocol: Fifty mg aliquots of non-reducing saccharides P I, P II, P III, P IV and P V in Experiment 4 were respectively dissolved in one ml of 50 mM acetate buffer (pH 4.5), admixed with one unit of glucoamylase commercialized by Seikagaku-Kogyo Co., Ltd., Tokyo, Japan, to effect enzymatic hydrolysis at 40° C. for 6 hours. The only saccharides detected in every resultant mixture on HPLC analysis were glucose and trehalose.

β-amylase = β-amylase (Glycine max, UniProt P10538); experiment: Hydrolysis by β-amylase; format: biochemical; settings: similarly as with glucoamylase
β-amylase, sequence (P10538 whole entry, species assumed): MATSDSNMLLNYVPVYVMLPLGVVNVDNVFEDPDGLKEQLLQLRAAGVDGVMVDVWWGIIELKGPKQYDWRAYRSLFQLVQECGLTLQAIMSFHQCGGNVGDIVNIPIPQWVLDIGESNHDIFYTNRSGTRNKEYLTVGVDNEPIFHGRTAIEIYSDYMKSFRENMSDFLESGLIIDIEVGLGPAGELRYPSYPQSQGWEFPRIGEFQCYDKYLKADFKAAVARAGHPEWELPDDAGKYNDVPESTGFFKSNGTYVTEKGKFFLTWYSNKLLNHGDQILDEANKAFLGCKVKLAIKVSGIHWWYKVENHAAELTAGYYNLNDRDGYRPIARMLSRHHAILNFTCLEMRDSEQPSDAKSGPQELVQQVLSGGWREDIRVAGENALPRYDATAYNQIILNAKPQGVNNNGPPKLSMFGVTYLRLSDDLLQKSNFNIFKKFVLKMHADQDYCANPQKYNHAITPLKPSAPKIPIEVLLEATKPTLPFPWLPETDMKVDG

[3] = target: T1, α-amylase specimen derived from pig pancreas (Sus scrofa, UniProt P00690); experiment: Hydrolysis by α-amylase; format: biochemical; design: Saccharide composition of hydrolysate: P I / Saccharide composition of hydrolysate: P II / Saccharide composition of hydrolysate: G3 (maltotriose) / Saccharide composition of hydrolysate: G2 (maltose) / Saccharide composition of hydrolysate: G1 (glucose): unit not given here; settings: for Hydrolysis by α-amylase: conclusion from Table 6; for Saccharide composition of hydrolysate: G1 (glucose) / Saccharide composition of hydrolysate: G2 (maltose) / Saccharide composition of hydrolysate: G3 (maltotriose) / Saccharide composition of hydrolysate: P I / Saccharide composition of hydrolysate: P II: α-amylase, 10 mg/ml, pH 6.9, 37° C., 18 hours, HPLC
T1 construct: purchased Sigma Chemical Company, St. Louis, USA; host or cells: pig pancreas
T1 sequence (P00690 16-511): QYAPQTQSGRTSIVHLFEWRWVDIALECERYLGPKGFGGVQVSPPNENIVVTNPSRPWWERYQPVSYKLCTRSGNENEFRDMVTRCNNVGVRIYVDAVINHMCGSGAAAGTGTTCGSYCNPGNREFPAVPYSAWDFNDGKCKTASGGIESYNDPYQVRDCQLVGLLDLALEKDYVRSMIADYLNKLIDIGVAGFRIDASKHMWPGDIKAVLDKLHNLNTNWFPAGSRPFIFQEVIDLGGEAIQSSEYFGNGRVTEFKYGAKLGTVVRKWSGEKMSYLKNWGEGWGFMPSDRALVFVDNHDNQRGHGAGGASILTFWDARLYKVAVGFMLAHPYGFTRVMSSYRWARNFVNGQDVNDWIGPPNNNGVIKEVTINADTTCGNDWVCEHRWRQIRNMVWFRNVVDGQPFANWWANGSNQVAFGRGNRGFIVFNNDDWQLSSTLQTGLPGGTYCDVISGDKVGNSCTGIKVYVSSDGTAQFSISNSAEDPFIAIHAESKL
Protocol: (§1) The enzymatic reaction with the α-amylase was as follows: Dissolving 10 mg of a substrate in one ml of 50 mM phosphate buffer (pH 6.9), mixing the resultant solution with one unit of the α-amylase, and incubating the resultant mixture at 37° C. for 18 hours. The enzymatic reaction with the α-glucosidase was conducted under the same conditions as in the case of α-amylase except that 50 mM acetate buffer (pH 4.0) was used as a buffer. The enzymatic reaction with the rat intestinal acetone powder was carried out under the same conditions as in the case of α-amylase except that 50 mM maleate buffer (pH 6.0) was used as a buffer.

[4] = target: T2, α-glucosidase specimen derived from rice (Oryza sativa subsp. japonica, UniProt Q653V7); experiment: Hydrolysis by α-glucosidase; format: biochemical; settings: 50 mM acetate buffer pH 4.0, 37° C., 18 hours
T2 construct: purchased Sigma Chemical Company, St. Louis, USA; host or cells: rice
T2 sequence (Q653V7 34-885): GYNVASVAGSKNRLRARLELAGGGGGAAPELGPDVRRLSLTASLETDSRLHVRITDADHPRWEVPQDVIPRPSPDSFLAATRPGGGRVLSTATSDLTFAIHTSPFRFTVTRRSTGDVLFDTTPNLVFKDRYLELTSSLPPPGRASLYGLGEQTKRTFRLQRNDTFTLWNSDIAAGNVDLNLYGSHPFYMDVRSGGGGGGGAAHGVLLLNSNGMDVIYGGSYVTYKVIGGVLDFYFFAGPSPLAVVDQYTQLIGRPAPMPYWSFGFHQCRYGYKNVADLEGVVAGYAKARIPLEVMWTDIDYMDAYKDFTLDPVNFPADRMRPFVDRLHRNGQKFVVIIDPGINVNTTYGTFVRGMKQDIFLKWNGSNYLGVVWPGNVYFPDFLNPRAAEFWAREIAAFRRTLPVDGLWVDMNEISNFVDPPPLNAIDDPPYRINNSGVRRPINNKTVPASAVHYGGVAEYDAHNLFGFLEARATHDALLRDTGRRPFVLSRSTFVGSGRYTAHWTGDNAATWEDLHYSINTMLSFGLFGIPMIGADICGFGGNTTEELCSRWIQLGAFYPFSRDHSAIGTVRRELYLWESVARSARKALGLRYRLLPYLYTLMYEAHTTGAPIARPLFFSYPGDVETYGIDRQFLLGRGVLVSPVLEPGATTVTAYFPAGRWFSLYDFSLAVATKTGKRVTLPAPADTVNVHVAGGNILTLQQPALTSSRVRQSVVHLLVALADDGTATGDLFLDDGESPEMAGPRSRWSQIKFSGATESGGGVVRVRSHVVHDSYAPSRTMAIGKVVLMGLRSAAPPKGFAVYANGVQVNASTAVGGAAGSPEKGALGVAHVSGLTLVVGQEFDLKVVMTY
Protocol: as §1

[5] = tested on: rat intestinal acetone powder; experiment: Hydrolysis by rat intestinal acetone powder; format: in vitro ADME; settings: 50 mM maleate buffer pH 6.0, 37° C., 18 hours
Protocol: as §1

[6] = tested on: 7-week old dd-strain mice; experiment: Acute toxicity test, oral; format: in vivo; settings: for Death of mice: oral, highest possible doses; for LD50: mouse, in vivo, po

Row | Structure (SMILES) | DE [1] | Coloration degree (480 nm) [2] | Coloration degree relative to corresponding material maltooligosaccharide [2] | Glucose (glucoamylase) | Trehalose (glucoamylase) | Molecular ratio (Glucose/Trehalose) (glucoamylase) | Hydrolysis by β-amylase (β-amylase) | Hydrolysis by α-amylase [3] | Saccharide composition of hydrolysate: G1 (glucose) [3] | Saccharide composition of hydrolysate: G2 (maltose) [3] | Saccharide composition of hydrolysate: G3 (maltotriose) [3] | Saccharide composition of hydrolysate: P I [3] | Saccharide composition of hydrolysate: P II [3] | Saccharide composition of hydrolysate with α-glucosidase: Glucose [4] | Saccharide composition of hydrolysate with α-glucosidase: Other saccharides [4] | Saccharide composition of hydrolysate with α-glucosidase: Trehalose [4] | Saccharide composition of hydrolysate with rat intestinal acetone powder: Glucose [5] | Saccharide composition of hydrolysate with rat intestinal acetone powder: Other saccharides [5] | Saccharide composition of hydrolysate with rat intestinal acetone powder: Trehalose [5] | Death of mice [6] | further results
1 | OC[C@H]1O[C@H](O[C@H]2O[C@H](CO)[C@@H](O[C@H]3O[C@H](CO)[C@@H](O[C@H]4O[C@H](CO)[C@@H](O)[C@H](O)[C@H]4O)[C@H](O)[C@H]3O)[C@H](O)[C@H]2O)[C@H](O)[C@@H](O)[C@@H]1O [P II, α-maltosyl trehalose] | 0.35 | 0.018 | 3-6% | 52.0% | 48.0% | 2.06 | not hydrolyzed | not substantially hydrolyzed | 0 | 0.8 | 0.4 | 0 | 98.8 | 52.1% | 0.3% | 47.6% | 52.5% | 0.4% | 47.1% | no mouse died | –
2 | OC[C@H]1O[C@H](O[C@H]2O[C@H](CO)[C@@H](O[C@H]3O[C@H](CO)[C@@H](O[C@H]4O[C@H](CO)[C@@H](O[C@H]5O[C@H](CO)[C@@H](O)[C@H](O)[C@H]5O)[C@H](O)[C@H]4O)[C@H](O)[C@H]3O)[C@H](O)[C@H]2O)[C@H](O)[C@@H](O)[C@@H]1O [P III, α-maltotriosyl trehalose] | 0.10 | 0.012 | 3-6% | 61.4% | 38.6% | 3.02 | one mole of maltose and one mole of P I | hydrolyzed by α-amylase into lower molecular weight oligosaccharides | 1.2 | 33.0 | 0 | 61.0 | 4.8 | 61.7% | 0.2% | 38.1% | 62.0% | 0.4% | 37.6% | no mouse died | –
3 | OC[C@H]1O[C@H](O[C@H]2O[C@H](CO)[C@@H](O[C@H]3O[C@H](CO)[C@@H](O)[C@H](O)[C@H]3O)[C@H](O)[C@H]2O)[C@H](O)[C@@H](O)[C@@H]1O [P I, α-glucosyl trehalose] | 0.83 | 0.027 | 3-6% | 36.2% | 63.8% | 1.07 | not hydrolyzed | not substantially hydrolyzed | 0 | 0.4 | 2.3 | 97.3 | 0 | 36.5% | 0.5% | 63.0% | 37.2% | 0.4% | 62.4% | no mouse died | –
4 | OC[C@H]1O[C@H](O[C@H]2O[C@H](CO)[C@@H](O[C@H]3O[C@H](CO)[C@@H](O[C@H]4O[C@H](CO)[C@@H](O[C@H]5O[C@H](CO)[C@@H](O[C@H]6O[C@H](CO)[C@@H](O)[C@H](O)[C@H]6O)[C@H](O)[C@H]5O)[C@H](O)[C@H]4O)[C@H](O)[C@H]3O)[C@H](O)[C@H]2O)[C@H](O)[C@@H](O)[C@@H]1O [P IV, α-maltotetraosyl trehalose] | 0.27 | 0.016 | 3-6% | 68.3% | 31.7% | 4.09 | one mole of maltose and one mole of P II | hydrolyzed by α-amylase into lower molecular weight oligosaccharides | 1.6 | 7.5 | 40.4 | 47.2 | 3.3 | 69.5% | 0.3% | 30.2% | 68.8% | 0.4% | 30.8% | no mouse died | LD50 [6]: ≥ 50000 mg/kg
5 | OC[C@H]1O[C@H](O[C@H]2O[C@H](CO)[C@@H](O[C@H]3O[C@H](CO)[C@@H](O[C@H]4O[C@H](CO)[C@@H](O[C@H]5O[C@H](CO)[C@@H](O[C@H]6O[C@H](CO)[C@@H](O[C@H]7O[C@H](CO)[C@@H](O)[C@H](O)[C@H]7O)[C@H](O)[C@H]6O)[C@H](O)[C@H]5O)[C@H](O)[C@H]4O)[C@H](O)[C@H]3O)[C@H](O)[C@H]2O)[C@H](O)[C@@H](O)[C@@H]1O [P V, α-maltopentaosyl trehalose] | 0.23 | 0.015 | 3-6% | 72.9% | 27.1% | 5.11 | two moles of maltose and one mole of P I | hydrolyzed by α-amylase into lower molecular weight oligosaccharides | 1.0 | 8.6 | 35.3 | 10.2 | 44.9 | 71.4% | 0.3% | 28.3% | 73.4% | 0.1% | 26.5% | no mouse died | LD50 [6]: ≥ 50000 mg/kg
